Measured values: patent US20260021167A1, “COMPOSITIONS AND METHODS FOR TREATING OR PREVENTING NEURODEGENERATIVE DISEASES” (Delaware State University, priority 2022, published 2026)

What was measured:
[1] = system: SUMO-1 conjugated α-synuclein; assay: Western blot of SUMO-1 conjugated α-synuclein in α-synuclein IP tissue samples; format: in vivo, mouse; conditions: PFF-injected mice, vs PFF only
Method: A) In Western blots, Momordin reversed the toxicity from PFF injection in reducing phospho-α-synuclein and SENP-1 on α-synuclein in the MB and STR. […] A pathological marker, phosphorylated α-synuclein was increased by PFF injection, which was reversed by Momordin treatment in the MB (F) and the STR (G).
(§1) A mouse model of Parkinson's disease is C57BL/6 male or female mice (50% each) injected with 5 μg of mouse PFF at 12 months old, followed by a treatment below for 6-7 weeks: • 1) without PFF injection, followed by vehicle (control, n=7); • 2) PFF injection, followed by vehicle (PFF only: control, n=8); • 3) PFF injection, followed by daily 10 mg/kg Momordin gavage (n=7-8); • 4) PFF injection, followed by daily 50 mg/kg Momordin gavage (n=7-8).

[2] = Passage of the BBB in mice; format: in vivo, mouse; conditions: 10 or 50 mg/kg
SENP-1 = target: T1, SENP-1 (Rattus norvegicus, UniProt A0A0G2JVG1); assay: Western blot of SENP-1 level in PFF-exposed N27p cells; format: cell-based; conditions: PFF exposure, compared with PFF only
T1 construct: endogenous in cells; host or cells: N27p (N27 parental) rat dopaminergic cells
T1 sequence (A0A0G2JVG1 1-672): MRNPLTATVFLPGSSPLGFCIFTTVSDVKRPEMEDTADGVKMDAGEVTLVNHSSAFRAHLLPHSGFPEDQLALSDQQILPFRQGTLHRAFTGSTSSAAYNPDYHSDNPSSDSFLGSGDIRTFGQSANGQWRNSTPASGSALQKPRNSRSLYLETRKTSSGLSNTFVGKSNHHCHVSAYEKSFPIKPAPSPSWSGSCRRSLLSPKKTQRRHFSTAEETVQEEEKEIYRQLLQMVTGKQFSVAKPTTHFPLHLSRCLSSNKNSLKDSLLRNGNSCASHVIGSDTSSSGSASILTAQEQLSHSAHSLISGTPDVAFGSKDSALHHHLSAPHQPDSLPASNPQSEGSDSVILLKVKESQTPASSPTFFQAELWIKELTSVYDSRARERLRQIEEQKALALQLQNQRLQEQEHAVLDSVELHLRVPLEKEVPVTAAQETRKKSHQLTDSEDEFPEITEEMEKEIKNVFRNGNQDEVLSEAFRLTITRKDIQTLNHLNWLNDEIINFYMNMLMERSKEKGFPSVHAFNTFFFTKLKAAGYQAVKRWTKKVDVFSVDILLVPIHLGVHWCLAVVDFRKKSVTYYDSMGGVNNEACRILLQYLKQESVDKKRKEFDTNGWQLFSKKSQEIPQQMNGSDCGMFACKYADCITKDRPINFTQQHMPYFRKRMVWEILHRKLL
Excerpt: A) The RNA interference suppressed the expression level of SENP-1, which enhanced SUMO-1 level. […] One-Way ANOVA, Dunnett's test was applied for statistical analysis in comparison with PFF only (#). *: p<0.05, **: p<0.01, p<0.001 and n.s.: not significant.

PFF-injected old mice = assay: Rotarod in PFF-injected mice; format: in vivo, mouse; conditions: 10 and/or 50 mg/kg oral, vs PFF only
Method: as §1
Rotarod. Rotarod is a behavioral test used to measure motor functionality. For three consecutive days, all the mice were habituated on the rotating rod comprising a horizontal plane rotating at a speed of 4 rotations per minute (rpm), increasing by 2 rpm every minute for 10 min or until they fell off the rod at 20 rpm. The data were collected over three consecutive days where the animals were placed on the rod at 4 rpm, and the rod increased the speed by 1 rpm every 16 sec for 10 min or until the mouse fell off. A longer latency to fall indicates an improved motor functionality.

CC1(C)CC[C@]2(C(=O)O)CC[C@]3(C)C(=CC[C@@H]4[C@@]5(C)CC[C@H](O[C@@H]6O[C@H](C(=O)O)[C@@H](O)[C@H](O[C@@H]7OC[C@@H](O)[C@H](O)[C@H]7O)[C@H]6O)C(C)(C)[C@@H]5CC[C@]43C)[C@@H]2C1 [Momordin lc]
SUMO-1 conjugated α-synuclein in the MB (α-synuclein IP) ([1]; midbrain): increase in SUMO-1 conjugated α-synuclein
SUMO-1 conjugated α-synuclein in the STR (α-synuclein IP) ([1]; striatum): increase in SUMO-1 conjugated α-synuclein
passage of the BBB [2]: effectively pass the BBB
level of SENP-1 (Western blot) (SENP-1): reduced the level of SENP-1
mobility on rotarod (PFF-injected old mice): enhances the mobility on rotarod
